Bounds are passed on as bounds.

Sequence of His-Tagged hOGA (human O-GlcNAcase) (O60502 whole entry): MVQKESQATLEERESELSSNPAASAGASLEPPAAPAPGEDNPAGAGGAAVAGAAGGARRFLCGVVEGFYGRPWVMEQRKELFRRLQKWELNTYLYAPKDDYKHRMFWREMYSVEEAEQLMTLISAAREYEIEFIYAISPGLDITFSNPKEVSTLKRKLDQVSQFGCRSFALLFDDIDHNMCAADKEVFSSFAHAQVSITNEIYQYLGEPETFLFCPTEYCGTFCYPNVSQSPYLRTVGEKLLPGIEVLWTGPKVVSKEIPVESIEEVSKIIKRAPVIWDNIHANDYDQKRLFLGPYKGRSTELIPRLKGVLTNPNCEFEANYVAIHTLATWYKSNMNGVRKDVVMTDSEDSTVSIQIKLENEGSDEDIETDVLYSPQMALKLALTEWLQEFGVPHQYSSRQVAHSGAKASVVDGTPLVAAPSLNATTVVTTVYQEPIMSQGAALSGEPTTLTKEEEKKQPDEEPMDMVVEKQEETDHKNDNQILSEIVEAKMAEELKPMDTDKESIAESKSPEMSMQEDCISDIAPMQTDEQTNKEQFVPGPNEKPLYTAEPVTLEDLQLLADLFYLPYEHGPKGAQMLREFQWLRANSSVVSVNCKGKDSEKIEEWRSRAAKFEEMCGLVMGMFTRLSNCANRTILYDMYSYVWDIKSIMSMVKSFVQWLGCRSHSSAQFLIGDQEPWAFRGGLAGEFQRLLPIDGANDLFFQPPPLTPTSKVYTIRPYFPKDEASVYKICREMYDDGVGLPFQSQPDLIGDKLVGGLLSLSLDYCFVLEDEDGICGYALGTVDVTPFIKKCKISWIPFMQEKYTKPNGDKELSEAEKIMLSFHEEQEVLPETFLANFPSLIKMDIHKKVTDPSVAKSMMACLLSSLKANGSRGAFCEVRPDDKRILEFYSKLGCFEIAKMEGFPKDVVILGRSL

One test has as its target His-Tagged hOGA (human O-GlcNAcase) (Homo sapiens (Human), UniProt O60502). Briefly: Human O-GlcNAcase enzyme inhibition assay (Example B01). Type of test: biochemical. The conditions noted are these: OGA IC50 (M), OGA enzyme inhibition assay; activity range classes defined in μM.
Broadly, the IC50 is the midpoint of a concentration-inhibition curve. In turn, `CC(c1ccc2c(c1)OCO2)N1CCN(c2ncc(C(=O)N(C)C)s2)CC1` (single isomer, unassigned) [Example 61, (R)-2-(4-(1-(benzo[d][1,3]dioxol-5-yl)ethyl)piperazin-1-yl)-N,N-dimethylthiazole-5-carboxamide or (S)-2-(4-(1-(benzo[d][1,3]dioxol-5-yl)ethyl)piperazin-1-yl)-N,N-dimethylthiazole-5-carboxamide] showed an IC50 of 5e-08 to 2e-07 M.
Take `CC(c1ccc2c(c1)OCO2)N1CCN(c2ncc(C(=O)N(C)C)s2)CC1` (racemic) [Example 47, 2-(4-(1-(Benzo[d](1,3)dioxol-5-yl)ethyl)piperazin-1-yl)-N,N-dimethylthiazole-5-carboxamide]: the half-inhibitory concentration (IC50) lay within 5e-08 to 2e-07 M.

The test is the same for the next values; noted with them: OGA enzyme inhibition assay; activity range classes defined in μM; read-out: OGA IC50.
As to `CC(c1ccc2c(c1)OCO2)N1CCN(c2ccccn2)CC1` (racemic) [Example 10, 1-(1-(Benzo[d][1,3]dioxol-5-yl)ethyl)-4-(pyridin-2-yl)piperazine], the 50% inhibitory concentration (IC50) was 2e-07 to 1e-06 M.
In the case of `CC(c1ccc2c(c1)OCO2)N1CCN(c2ncc(CN3CCOCC3)s2)CC1` (racemic) [Example 79, 4-((2-(4-(1-(Benzo[d][1,3]dioxol-5-yl)ethyl)piperazin-1-yl)thiazol-5-yl)methyl)morpholine], the IC50 was 5e-08 to 2e-07 M.
Turning to `CC(c1ccc2c(c1)OCO2)N1CCN(c2nc(C(=O)NC3CCCCC3)cs2)CC1` (racemic) [Example 33, 2-(4-(1-(Benzo[d][1,3]dioxol-5-yl)ethyl)piperazin-1-yl)-N-cyclohexylthiazole-4-carboxamide], the IC50 is 2e-07 to 1e-06 M.
In the case of `CC(=O)N1CCc2nc(N3CCN([C@@H](C)c4ccc5c(c4)OCO5)CC3)sc2C1` [Example 184, (S)-1-(2-(4-(1-(benzo[d][1,3]dioxol-5-yl)ethyl)piperazin-1-yl)-6,7-dihydrothiazolo[5,4-c]pyridin-5(4H)-yl)ethan-1-one], the half-maximal inhibitory concentration (IC50) is under 5e-08 M.
In the case of `CNC(=O)c1cnc(N2CCN(C(C)c3ccc4c(c3)OCO4)CC2)nc1` (racemic) [Example 98, 2-(4-(1-(Benzo[d][1,3]dioxol-5-yl)ethyl)piperazin-1-yl)-N-methylpyrimidine-5-carboxamide], the IC50 was under 5e-08 M.
Consider `CC(=O)Nc1nnc(N2CCN(C(C)c3ccc4cc(Cl)cnc4c3)CC2)s1` (racemic) [Example 124], for which the IC50 lay within 1e-06 to 1e-05 M.
On the same count and under the same terms, the same measure for `CC(=O)Nc1nnc(N2CCN(C(C)c3ccc4sc(C)nc4c3)CC2)s1` (racemic) [Example 170, N-(5-(4-(1-(2-methylbenzo[d]thiazol-5-yl)ethyl)piperazin-1-yl)-1,3,4-thiadiazol-2-yl)acetamide]: under 5e-08 M; for `CC(c1ccc2c(c1)OCO2)N1CCN(c2nc(C(F)(F)F)cs2)CC1` (racemic) [Example 13, 2-(4-(1-(Benzo[d][1,3]dioxol-5-yl)ethyl)piperazin-1-yl)-4-(trifluoromethyl)thiazole]: 2e-07 to 1e-06 M.
Regarding `CC(=O)Nc1nnc(N2CCN(C(C)c3ccc4c(c3)OCCO4)CC2)s1` (racemic) [Example 97, N-(5-(4-(1-(2,3-Dihydrobenzo[b][1,4]dioxin-6-yl)ethyl)piperazin-1-yl)-1,3,4-thiadiazol-2-yl)acetamide], the IC50 is under 5e-08 M.
As to `CC(c1ccc2nccnc2c1)N1CCN(c2ncccn2)CC1` (racemic) [Example 83, 6-(1-(4-(pyrimidin-2-yl)piperazin-1-yl)ethyl)quinoxaline], the half-inhibitory concentration (IC50) lay in the range of 5e-08 to 2e-07 M.

The test is the same for the next values; noted with them: measured according to Example B01.
As to `COc1ccc(C(C)N2CCN(c3ccc(Br)c(OC)n3)CC2)cc1OC` (stereo not drawn) [compound of example 72 of WO 2005/110982, reference compound], the “OGA inhibitor activity (in words)” value is “not active as OGA inhibitors”.
Still for that read-out and setting: the same measure for `CC(c1ccc2c(c1)OCCO2)N1CCN(c2ncc(C(=O)N3CCN(C)CC3)s2)CC1` (single isomer, unassigned) [Example 75]: “very potent OGA inhibitors”; for `Cc1cc2ccc(C(C)N3CCN(c4ncccc4C(F)(F)F)CC3)cc2[nH]c1=O` (stereo not drawn) [compound of example 56 of WO 99/21850, reference compound]: “not useful as OGA inhibitors”.

(Values after patent US10336775B2 (Asceneuron SA, priority 2014, dated 2019).)
